The supplement of paper PMC10307832

Tests used:
Assay in all cases: relative viability (nuclei count vs DMSO), 5 days (fraction); higher = more cells survive
Vandetanib + Palbociclib = compound: COc1cc2/c(=N/c3ccc(Br)cc3F)nc[nH]c2cc1OCC1CCN(C)CC1 [Vandetanib] + CC(=O)c1c(C)c2cnc(Nc3ccc(N4CCNCC4)cn3)nc2n(C2CCCC2)c1=O [Palbociclib] (partner 0.5 µM)
Summary of the method: (§1)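 Lung cancer cell lines were seeded in 1536-well plates and dosed by pin tool the next day, with either a single drug or a fixed anchor-drug dose combined with five library-drug doses (not always all listed) spaced in √10 steps. Five days later, one step fixed the cells and stained their nuclei (final 0.05% Triton X-100, 1% formaldehyde, 1 ug/ml Hoechst), and nuclei were counted on 4× images. Relative viability is the nuclei count in treated wells divided by the count in vehicle wells, and each value is the median of duplicate plates.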

NVP-TAE684 + Foretinib = compound: COc1cc(N2CCC(N3CCN(C)CC3)CC2)ccc1Nc1ncc(Cl)c(Nc2ccccc2S(=O)(=O)C(C)C)n1 [NVP-TAE684] + COc1cc2c(Oc3ccc(NC(=O)C4(C(=O)Nc5ccc(F)cc5)CC4)cc3F)ccnc2cc1OCCCN1CCOCC1 [Foretinib] (partner 0.25 µM)
Summary of the method: as §1

NVP-TAE684 + Luminespib = compound: COc1cc(N2CCC(N3CCN(C)CC3)CC2)ccc1Nc1ncc(Cl)c(Nc2ccccc2S(=O)(=O)C(C)C)n1 [NVP-TAE684] + CCNC(=O)c1noc(-c2cc(C(C)C)c(O)cc2O)c1-c1ccc(CN2CCOCC2)cc1 [Luminespib] (partner 0.01 µM)
Summary of the method: as §1

Vandetanib + Vorinostat = compound: COc1cc2/c(=N/c3ccc(Br)cc3F)nc[nH]c2cc1OCC1CCN(C)CC1 [Vandetanib] + O=C(CCCCCCC(=O)Nc1ccccc1)NO [Vorinostat] (partner 1 µM)
Summary of the method: as §1

| Cell Line | relative viability (Vandetanib + Palbociclib; first compound 0.02 µM) | relative viability (Vandetanib + Palbociclib; first compound 0.06325 µM) | relative viability (Vandetanib + Palbociclib; first compound 0.2 µM) | relative viability (Vandetanib + Palbociclib; first compound 0.6325 µM) | relative viability (Vandetanib + Palbociclib; first compound 2 µM) | relative viability (NVP-TAE684 + Foretinib; first compound 0.2 µM) | relative viability (NVP-TAE684 + Foretinib; first compound 0.6325 µM) | relative viability (NVP-TAE684 + Foretinib; first compound 2 µM) | relative viability (NVP-TAE684 + Luminespib; first compound 0.2 µM) | relative viability (NVP-TAE684 + Luminespib; first compound 0.6325 µM) | relative viability (NVP-TAE684 + Luminespib; first compound 2 µM) | relative viability (Vandetanib + Vorinostat; first compound 0.02 µM) | relative viability (Vandetanib + Vorinostat; first compound 0.06325 µM) | relative viability (Vandetanib + Vorinostat; first compound 0.2 µM) | relative viability (Vandetanib + Vorinostat; first compound 0.6325 µM) | relative viability (Vandetanib + Vorinostat; first compound 2 µM) |
| --- | --- | --- | --- | --- | --- | --- | --- | --- | --- | --- | --- | --- | --- | --- | --- | --- |
| PC-3 [JPC-3] | 0.509 | 0.527 | 0.592 | 0.553 | 0.464 | 1.2 | 0.99 | 0.793 | 0.614 | 0.639 | 0.601 | 0.808 | 0.739 | 0.492 | 0.449 | 0.348 |
| IA-LM | – | – | – | – | – | 1.07 | 1.07 | 1.11 | – | – | – | 1.06 | 0.969 | 0.935 | 1.06 | 0.874 |
| NCI-H520 | 0.254 | 0.196 | 0.293 | 0.273 | 0.256 | 0.712 | 0.979 | 0.51 | 0.189 | 0.219 | 0.219 | 0.7 | 0.706 | 0.739 | 0.677 | 0.639 |
| A549 | – | – | – | – | – | 1.01 | – | 0.659 | – | – | – | – | – | – | – | – |
| BEN | 0.458 | 0.46 | 0.443 | 0.479 | 0.448 | 0.736 | 0.509 | 0.555 | 0.444 | 0.172 | 0.34 | 0.6 | 0.56 | 0.613 | 0.552 | 0.569 |
| COR-L 105 | 0.388 | 0.442 | 0.392 | 0.38 | 0.39 | 1.02 | 1.4 | 0.897 | 0.674 | 0.798 | 0.317 | 0.922 | 0.807 | 0.829 | 0.822 | 0.537 |
| NCI-H1734 | 0.35 | 0.348 | 0.314 | 0.373 | 0.295 | 0.802 | 0.824 | 0.354 | 0.221 | 0.164 | 0.166 | 0.87 | 0.71 | 0.755 | 0.852 | 0.815 |
| LOU-NH91 | 0.564 | 0.524 | 0.535 | 0.543 | 0.416 | 0.892 | 0.92 | 0.801 | 0.305 | 0.339 | 0.296 | 0.942 | 0.806 | 0.559 | 0.883 | 0.886 |
| NCI-H2405 | 0.494 | 0.39 | 0.514 | 0.592 | 0.514 | 1 | 0.966 | 0.575 | 0.703 | 0.694 | 0.386 | 1.02 | 0.885 | 0.97 | 1.14 | 0.898 |
| HCC-15 | 0.647 | 0.713 | 0.646 | 0.75 | 0.721 | 1.09 | 0.951 | 0.453 | 0.241 | 0.271 | 0.232 | 0.832 | 0.796 | 0.782 | 0.89 | 0.816 |
| HCC-44 | 0.91 | 0.914 | 0.967 | 0.979 | 0.961 | – | – | – | – | 0.912 | 0.272 | 1.11 | 1.09 | 1.21 | 1.1 | 1.15 |
| NCI-H1792 | 0.639 | 0.626 | 0.636 | 0.634 | 0.501 | – | – | – | 0.396 | 0.411 | 0.359 | – | – | – | – | – |
| NCI-H2347 | 0.423 | 0.315 | 0.476 | 0.457 | 0.443 | – | 1.15 | 0.521 | 0.245 | 0.264 | 0.45 | 0.643 | 0.387 | 0.575 | 0.678 | 0.574 |
| SW 900 | 0.624 | 0.547 | – | 0.48 | 0.409 | 0.86 | 0.802 | 0.638 | 0.164 | 0.154 | 0.158 | 0.692 | 0.528 | – | 0.425 | 0.429 |
| RERF-LC-KJ | 1.05 | 1.03 | 0.673 | 0.993 | 0.869 | 0.853 | 0.931 | 0.771 | 1.65 | 1.21 | 0.587 | 0.689 | 0.607 | 0.724 | 0.608 | 0.536 |
| NCI-H522 | 0.89 | 0.909 | 1.14 | 0.961 | 0.986 | – | – | – | 0.925 | 1.28 | 1.02 | 0.947 | 0.962 | 0.85 | 0.874 | 0.936 |
| NCI-H1666 | 0.669 | 0.605 | 0.62 | 0.621 | 0.63 | 0.973 | 0.899 | 0.801 | 0.945 | 0.975 | 0.843 | 1.06 | 0.968 | 1.09 | 0.964 | 0.993 |
| LC-2-ad | 0.466 | 0.489 | 0.526 | 0.441 | 0.422 | 0.936 | 0.864 | 0.403 | 1.01 | 0.918 | 0.465 | 0.686 | 0.673 | 0.714 | 0.709 | 0.462 |
| NCI-H2023 | 0.359 | 0.369 | – | 0.314 | 0.319 | 0.656 | 0.739 | 0.461 | 0.792 | 0.828 | 0.215 | 0.563 | 0.516 | – | 0.561 | 0.489 |
| SK-LU-1 | 0.387 | 0.314 | 0.363 | 0.376 | 0.354 | 0.947 | 0.766 | 0.469 | 0.188 | 0.217 | 0.167 | 0.879 | 0.494 | 0.798 | 0.918 | 0.767 |
| LCLC-97TM1 | 0.188 | 0.21 | 0.224 | 0.209 | 0.254 | 0.933 | 0.897 | 0.278 | 0.706 | – | 0.128 | 0.711 | 0.755 | 0.719 | 0.559 | 0.755 |
| NCI-H1915 | 0.51 | 0.519 | 0.499 | 0.484 | 0.522 | 1.04 | 1.1 | 0.902 | 0.631 | 0.821 | 0.699 | 0.497 | 0.512 | 0.535 | 0.532 | 0.505 |
